From ChEMBL document CHEMBL5233255, “Natural and nature-inspired stilbenoids as antiviral agents” (Eur J Med Chem, 2020) come the findings set out here.

SMILES strings stand for the structures. pEC50, pIC50: −log10 of the molar value. ≈ marks a conversion by molar mass, not a printed value.

Data set [1] can be described thus: Cytotoxicity against HCV RNA-transfected human Huh7.5 cells assessed as reduction in cell viability. The data set is classed as toxicity, cell-based, Huh-7.5. The note with it: HCV RNA-transfected Huh7.5 cells.
Data set [2] has as its system Hepatitis C virus. Briefly: Antiviral activity against Hepatitis C virus genotype 2 infected in renilla luciferase-J6/JFH1 RNA-transfected human Huh7.5 cells assessed as reduction in viral replication incubated for 72 hrs by qRT-PCR analysis. The data set is classed as functional, organism-based, Hepacivirus hominis. The note with it: genotype 2, Huh7.5, 72 h. Background: Quantitative PCR measures a nucleic acid by following its amplification.

In data set [3] the test system is Hepatitis C virus. Briefly: Antiviral activity against Hepatitis C virus genotype 1 infected in Bart79I RNA-transfected human Huh7.5 cells assessed as reduction in viral replication incubated for 24 to 72 hrs by RT-PCR assay. The data set is classed as functional, organism-based, Hepacivirus hominis. Particulars: genotype 1, Huh7.5.
In data set [4] the test system is Hepatitis C virus. Description: Antiviral activity against Hepatitis C virus genotype 2 infected in human Huh7.5 cells assessed as reduction in viral replication by RT-PCR assay. Particulars: genotype 2, Huh7.5. The data set is classed as functional, organism-based, Hepacivirus hominis.
The subject of data set [5] is Influenza A virus. Briefly: Antiviral activity against influenza A virus A/PR/8/34 (H1N1) infected in human A549 cells assessed as inhibition of RANTES production incubated for 48 hrs by ELISA. The data set is classed as functional, organism-based. The note with it: A549, 48 h. On the technique in general: In an ELISA, binding on a coated surface is turned into a signal by an enzyme label.

The nature of data set [6]: Cytotoxicity against human A549 cells assessed as reduction in cell viability by Alamar blue assay. The data set is classed as toxicity, cell-based. Background: Resazurin is reduced to fluorescent resorufin, in cell work by metabolically active cells.
In data set [7] the test system is Hepatitis C virus. Briefly: Antiviral activity against Hepatitis C virus infected in human Huh7.5 cells assessed as reduction in viral replication. The data set is classed as functional, organism-based, Hepacivirus hominis.
Data set [8] can be described thus: Cytotoxicity against human Huh7.5 cells infected with Hepatitis C virus assessed as reduction in cell viability. The data set is classed as toxicity, cell-based, Huh-7.5.
Data set [9] in a line: Cytotoxicity against human C8166 cells assessed as inhibition of cell growth by MTT assay. The data set is classed as toxicity, cell-based.
For data set [10], the system named is Human immunodeficiency virus 1. Description: Antiviral activity against HIV-1 infected in human C8166 cells assessed as inhibition of viral replication. The data set is classed as functional, organism-based. The note with it: Human immunodeficiency virus 1, C8166.
Data set [11] can be described thus: Therapeutic index, ratio of CC50 for cytotoxicity against human C8166 cells to EC50 for antiviral activity against HIV-1 infected in C8166 cells. The data set is classed as toxicity, cell-based. Particulars: read-out: Ratio CC50/EC50.
The subject of data set [12] is Human alphaherpesvirus 1. Briefly: Antiviral activity against HSV-1 15577 infected in African green monkey Vero cells incubated for 3 days by plaque reduction assay. The data set is classed as functional, organism-based. Particulars: Human alphaherpesvirus 1, 15577, Vero, 72 h.
In data set [13] the test system is Human alphaherpesvirus 1. Description: Antiviral activity against HSV-1 clinical isolate infected in African green monkey Vero cells incubated for 3 days by plaque reduction assay. The data set is classed as functional, organism-based. Particulars: Human alphaherpesvirus 1, Vero, 72 h.
In a further data set the test system is Human alphaherpesvirus 2. Briefly: Antiviral activity against HSV-2 333 infected in African green monkey Vero cells incubated for 3 days by plaque reduction assay. The data set is classed as functional, organism-based. The note with it: Human alphaherpesvirus 2, 333, Vero, 72 h.
Data set [14] concerns Human immunodeficiency virus 1. Briefly: Antiviral activity against HIV-1 infected in HEK293T cells. The data set is classed as functional, organism-based. Particulars: Human immunodeficiency virus 1, HEK-293T.
The test system of data set [15] is Influenza A virus. Briefly: Antiviral activity against influenza A virus A/Guangdong/243/72 ([…]) infected in MDCK cells assessed as inhibition of virus-induced cytopathic effect. The data set is classed as functional, organism-based.
The nature of data set [16]: Cytotoxicity against HEK293T cells. The data set is classed as toxicity, cell-based, HEK-293T. The note with it: human, read-out: TC50 (the source's name).
Data set [17] is described as follows: Selectivity index, ratio of CC50 for cytotoxicity against MDCK cells to IC50 for influenza A virus A/Guangdong/243/72 ([…]) infected in MDCK cells. Particulars: dog, read-out: Ratio CC50/IC50. The data set is classed as toxicity, cell-based.
Data set [18] is described as follows: Inhibition of HIV-1 integrase catalysed 3' processing activity by densitometric analysis. Set-up: species or system Human immunodeficiency virus 1.
The nature of data set [19]: Inhibition of recombinant HIV-1 integrase catalysed strand transfer activity measured after 60 mins by electrochemiluminescent plate-based assay. Set-up: species or system Human immunodeficiency virus 1.

With `Oc1ccc(/C=C/c2cc(O)cc3c2C(c2cc(O)cc(O)c2)C(c2ccc(O)cc2)O3)cc1` (racemic), the CC50 in [1] was over 10 µM. Also, the pEC50 in the data set on Hepatitis C virus [2] was 6.70; in the data set with Hepatitis C virus [3], 5.77; in the data set on Hepatitis C virus [4] it was 5.03.

`Oc1ccc([C@H]2c3c(O)cc(O)cc3[C@H]3c4c(cc(O)cc4[C@@H]2c2cc(/C=C/c4cc(O)cc5c4[C@H](c4cc(O)cc(O)c4)[C@@H](c4ccc(O)cc4)O5)ccc2O)O[C@@H]3c2ccc(O)cc2)cc1` [VITISIN A]: the pEC50 in the data set with Influenza A virus [5] was 6.57; in the data set on Hepatitis C virus [7] it was 7.46. Further, the CC50 is 22.4 µM in data set [6] and over 10 µM in data set [8].

Consider `O=S(=O)([O-])Oc1cc(/C=C/c2ccc(O)cc2)cc(O[C@@H]2O[C@H](CO)[C@@H](O)[C@H](O)[C@H]2O)c1.[Na+]`, for which the CC50 in data set [9] was 527 µg/mL. For the same compound, the EC50 in data set [10] was 89.7 µg/mL. Moreover, in [11], the selectivity ratio worked out at 5.87.

With `OC[C@H]1O[C@@H](Oc2cc(O)cc(-c3cc4ccc(O)cc4o3)c2)[C@H](O)[C@@H](O)[C@@H]1O`, the IC50 in the data set on Human alphaherpesvirus 1 [12], in the data set on Human alphaherpesvirus 1 [13] and in the data set with Human alphaherpesvirus 2 was 2.5 µg/mL (≈ 6.18 µM) throughout.

Consider `O=Cc1ccc2c(c1)C(c1cc(O)cc3c1[C@H](c1cc(O)cc(O)c1)[C@@H](c1ccc(O)cc1)O3)[C@H](c1ccc(O)cc1)O2` (some centres not stated), for which, in the data set with Influenza A virus [5], the pEC50 was 5.07. In [6], the CC50 was over 400 µM.

For the compound `Oc1ccc(-c2cc(-c3cc(O)cc(O)c3)on2)cc1`, the pEC50 in data set [14] was under 4.12.

`CC(C)=CCc1c(O)cc(-c2cc3ccc(O)cc3o2)cc1O` [MORACIN C]: the IC50 with Human alphaherpesvirus 1 [12], in the data set with Human alphaherpesvirus 1 [13] and with Human alphaherpesvirus 2 was 2.5 µg/mL (≈ 8.06 µM) in each case.

With `O=S(=O)([O-])O[C@H]1[C@H](O)[C@@H](O)[C@H](Oc2cc(O)cc(/C=C\c3ccc(O)cc3)c2)O[C@@H]1CO.[Na+]`, in data set [9], the CC50 came out at 98.8 µg/mL. In addition, in data set [10], the EC50 turned out to be 84.8 µg/mL. In [11], the selectivity ratio came out at 1.17.

As for `Oc1ccc(-c2cnc(-c3cc(O)cc(O)c3)nc2)cc1`, the pEC50 in data set [14] is under 4.12.

For the compound `NC(=O)c1ncn([C@@H]2O[C@H](CO)[C@@H](O)[C@H]2O)n1` [RIBAVIRIN], the IC50 in the data set with Influenza A virus [15] is 5.54 µg/mL (≈ 22.7 µM).

On to `O=S(=O)([O-])OC[C@H]1O[C@@H](Oc2cc(O)cc(/C=C/c3ccc(O)cc3)c2)[C@H](O)[C@@H](O)[C@@H]1O.[Na+]`, for which the CC50 in [9] came to 746 µg/mL. For the same compound, the EC50 in data set [10] was over 200 µg/mL. In addition, the selectivity ratio in [11] was under 3.73.

On to `Oc1ccc(/C=C/c2cc(O)cc3c2[C@@H](c2cc(O)cc4c2[C@H](c2cc(O)cc5c2[C@@H](c2cc(O)cc(O)c2)[C@H](c2ccc(O)cc2)O5)[C@@H](c2ccc(O)cc2)O4)[C@H](c2ccc(O)cc2)O3)cc1`, for which the CC50 in data set [6] amounted to 8.4 µM.

Take `O=S(=O)([O-])O[C@H]1[C@H](Oc2cc(O)cc(/C=C/c3ccc(O)cc3)c2)O[C@H](CO)[C@@H](O)[C@@H]1O.[Na+]`: the CC50 in data set [9] is over 2000 µg/mL. Also, the EC50 in [10] came out at 153 µg/mL. The selectivity ratio in [11] was over 13.

In [14], `Oc1ccc(-c2ccc(-c3cc(O)cc(O)c3)[nH]2)cc1` showed a pEC50 of under 4.12.

Regarding `CC(=O)Oc1ccc(/C=C/c2cc(OC(C)=O)cc3c2C(c2cc(OC(C)=O)cc(OC(C)=O)c2)C(c2ccc(OC(C)=O)cc2)O3)cc1` (configuration not stated), in [1], the CC50 is over 10 µM. Also, the figures for the pEC50 in the data set with Hepatitis C virus [2], in the data set on Hepatitis C virus [3] and in the data set with Hepatitis C virus [4] were 5.63, 4.98 and 5.33, respectively.

On to `Oc1ccc(-c2sc3ccccc3c2-c2cc(O)cc(O)c2)cc1`, for which the CC50 in [16] stood at 118 µM. Besides, in [14], the pEC50 was 4.35.

Compound `Oc1cc(O)cc(-c2ccc3cnccc3c2)c1` gave a pEC50 in [14] of under 4.12.

As to `COc1cc(/C=C/c2cc(O)cc(O)c2)ccc1O`, the IC50 with Influenza A virus [15] was 4.28 µg/mL (≈ 16.6 µM). Moreover, in data set [17], the selectivity ratio was found to be 8.99.

As to `Oc1ccc(-n2cc(-c3cc(O)cc(O)c3)nn2)cc1`, in [14], the pEC50 is under 4.12.

With `Nc1ccc(/C=C/c2ccc(N)cc2S(=O)(=O)O)c(S(=O)(=O)O)c1`, the pIC50 in data set [18] and in data set [19] was under 3.95 each time.

Consider `Oc1ccc([C@@H]2c3c(O)cc(O)cc3[C@H]3c4c(cc(O)cc4[C@@H]2O)O[C@@H]3c2ccc(O)cc2)cc1`, for which the pEC50 in the data set with Hepatitis C virus [7] was 5.24. In addition, the CC50 in data set [8] was over 10 µM.

A word on the pEC50: it is the EC50 on a negative log10 scale, so that one unit is a factor of ten. What is called EC50 is the concentration at which the effect is half-maximal. A word on the IC50: it is the midpoint of a concentration-inhibition curve. A word on the pIC50: it is −log10 of the IC50, conventionally taken in molar units.
